Measured values as given in US20080031868A1, “HUMAN LYSOZYME MEDICINE, ITS MANUFACTURING METHOD AND APPLICATION THEREOF” (priority 2005, published 2008).
In brackets after ≈: the same amount, converted by molar mass.

What was measured:
[1] = system: No. 04 Coronavirus; experiment: Inhibition on No. 04 Coronavirus in HELA cells (CPE method); format: cell-based; settings: 2 h
Method: HELA cells were seeded on 96-well cultivation plates at the concentration of 400,000/ml and grown to monolayer at 37° C. in 5% CO2 incubator for 24 hours. After removal of cultivation liquid, coronavirus liquid were added to HELA cells and absorbed at 37° C. in 5% CO2 incubator for 2 hours. […] At the same time reference cells and reference virous were cultivated at 37° C. in 5% CO2 incubator for 5 to 7 days. Inverted microscope was used everyday to observe the cytopathic effect (CPE) of virus. The determination were ended according to the appearance of “+++-++++”. […] The determination was repeated three times.

[2] = system: HELA cell; experiment: Toxicity to HELA cell (CPE, Reed-Muench); settings: 6 days
Method: 1. Determination of the Toxicity of Recombinant Human Lysozyme to HELA Cell:
HELA cells were seeded on 96-well culture plates at the concentration of 400,000/mi and grown at 37° C. in a 5% CO2 incubator for 2 hours. 100 μl recombinant human lysozyme which were double-diluted from 6000 ug/ml to 11.7 ug/ml and positive reference medicine which were double-diluted from 6000 ug/ml to 11.7 ug/ml were respectively added to 3 wells per concentration. At the same time the reference cells were cultivated at 37° C. in a 5% CO2 incubator for 6 days. Inverted microscope was used everyday to observe the cytopathic effect (CPE). The cytopathic effect under 25% was recorded as “+”, the cytopathic effect under 26%˜50% was recorded as “++”, the cytopathic effect under 51%˜75% was recorded as “+++” and the cytopathic effect under 76%˜100% was recorded as “++++”. Drug median toxic dose (TD50) and minimum toxic dose (TD0) were calculated by using Reed-Muench method.

[3] = system: No. 04 Coronavirus; experiment: organism not typed; format: cell-based
Method: HELA cells were seeded on 96-well cultivation plates at the concentration of 400,000/ml and grown to monolayer at 37° C. in 5% CO2 incubator for 24 hours. […] Then 100 TCID50coronavirus liquid were added to HELA cells. At the same time reference cell and reference virous were cultivated at 37° C. in 5% CO2 incubator for 5 to 7 days. At the same time normal cell reference and virous reference were cultivated at 37° C. in 5% CO2 incubator for 5 to 7 days. Inverted microscope was used everyday to observe the cytopathic effect (CPE) of virus. The determination were ended according to the appearance of “+++-++++”. […] The determination was repeated three times.

[4] = read-out: minimum inhibitory concentration (MIC)
[5] = HeLa, read-out: median inhibitory concentration (IC50)

SMILES: Nc1nc(O)c2ncn(COC(CO)CO)c2n1 [Ganciclovir, reference compound]
- MIC [1, 4]: 23.4 µg/mL (≈ 91.8 µM)
- IC50 [1, 5]: 11.7 µg/mL (≈ 45.8 µM)
- minimum toxic dose (TD0) ([2]; HELA cells, CPE, Reed-Muench): 6000 ± 0 µg/mL
- median toxic dose (TD50) ([2]; human): 6000 ± 0 µg/mL
- IC50 [3, 5]: 11.7 µg/mL (≈ 45.8 µM)
- MIC [3, 4]: 23.4 µg/mL (≈ 91.8 µM)
